The subject of one data set is UACC-62. Nature of the data set: NCI-60 cytotoxicity, UACC-62. The settings on record: Homo sapiens, UACC-62, read-out: Cytotoxicity (GI50) Melanoma UACC-62.
Data set [1] concerns NCI-60 panel of human cancer cell lines. Briefly: NCI-60 screen, mean graph midpoint over all cell lines. Particulars: Homo sapiens, read-out: Cytotoxicity (GI50) MGM.
The next data set has as its system OVCAR-3. Nature of the data set: NCI-60 cytotoxicity, OVCAR-3. Particulars: Homo sapiens, OVCAR-3, read-out: Cytotoxicity (GI50) Ovarian Ovcar-3.
For another data set, the target named is T1, recombinant human TDP2 (Homo sapiens, UniProt O95551).
T1 sequence (O95551 1-362): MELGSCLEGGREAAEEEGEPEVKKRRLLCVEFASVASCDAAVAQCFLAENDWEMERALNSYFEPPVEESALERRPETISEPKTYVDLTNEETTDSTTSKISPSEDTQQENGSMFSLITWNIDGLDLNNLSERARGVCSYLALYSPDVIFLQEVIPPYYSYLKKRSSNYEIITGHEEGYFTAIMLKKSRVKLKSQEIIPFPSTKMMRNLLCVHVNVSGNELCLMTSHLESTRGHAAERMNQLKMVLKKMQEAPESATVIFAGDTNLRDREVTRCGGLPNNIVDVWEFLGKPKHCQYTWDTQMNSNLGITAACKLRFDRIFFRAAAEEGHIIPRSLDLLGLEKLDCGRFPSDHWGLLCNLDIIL
Nature of the data set: Recombinant Tdp2 assay. It counts as biochemical. Particulars: read-out: Enzyme Inhibitory Activity Tdp2 (IC50).

A further data set deals with SF-539. Nature of the data set: NCI-60 cytotoxicity, SF-539. Particulars: Homo sapiens, SF-539, read-out: Cytotoxicity (GI50) CNS SF-539.
Another data set has as its target T2, Top1 (Homo sapiens, UniProt P11387).
T2 sequence (P11387 1-765): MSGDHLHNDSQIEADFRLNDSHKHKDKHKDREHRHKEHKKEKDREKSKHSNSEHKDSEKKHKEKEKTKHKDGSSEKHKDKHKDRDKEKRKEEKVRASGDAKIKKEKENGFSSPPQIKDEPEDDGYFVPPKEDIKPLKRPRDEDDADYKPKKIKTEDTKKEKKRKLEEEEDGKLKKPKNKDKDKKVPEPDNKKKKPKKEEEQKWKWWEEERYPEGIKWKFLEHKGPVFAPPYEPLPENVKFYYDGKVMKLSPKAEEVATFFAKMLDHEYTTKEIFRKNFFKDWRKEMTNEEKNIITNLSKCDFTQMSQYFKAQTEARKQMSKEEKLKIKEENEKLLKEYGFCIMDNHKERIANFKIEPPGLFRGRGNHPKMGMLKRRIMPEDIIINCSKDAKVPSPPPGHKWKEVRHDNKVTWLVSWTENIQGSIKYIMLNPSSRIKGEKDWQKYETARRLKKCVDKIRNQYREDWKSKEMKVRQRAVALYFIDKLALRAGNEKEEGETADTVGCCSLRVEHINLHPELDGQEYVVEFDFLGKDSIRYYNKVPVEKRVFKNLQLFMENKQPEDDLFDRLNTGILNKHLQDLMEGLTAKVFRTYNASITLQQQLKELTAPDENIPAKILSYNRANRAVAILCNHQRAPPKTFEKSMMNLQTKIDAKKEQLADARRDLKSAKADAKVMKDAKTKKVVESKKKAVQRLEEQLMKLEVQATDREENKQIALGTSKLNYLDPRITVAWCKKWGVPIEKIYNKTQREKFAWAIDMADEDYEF
Nature of the data set: Top1-mediated DNA cleavage assay. The settings on record: DNA cleavage relative to 1 μM MJ-III-65 (19) and 1 μM camptothecin (18); Table 2. It counts as biochemical.

The next data set concerns HCT-116. Briefly: NCI-60 cytotoxicity, HCT-116. The settings on record: Homo sapiens, single determinations, Table 2, read-out: Cytotoxicity (GI50) Colon HCT-116. It counts as cell-based.
In the next data set the test system is MCF-7. Briefly: NCI-60 cytotoxicity, MCF-7. Particulars: Homo sapiens, MCF7, read-out: Cytotoxicity (GI50) Breast MCF-7.
The next data set concerns HOP-62. Briefly: NCI-60 cytotoxicity, HOP-62. Particulars: Homo sapiens, HOP-62, read-out: Cytotoxicity (GI50) Lung HOP-62.
The target in another data set is Tdp1 (Homo sapiens, UniProt Q9NUW8). Briefly: Recombinant Tdp1 assay. It counts as biochemical. The settings on record: determined in duplicate; Table 2; read-out: Enzyme Inhibitory Activity Tdp1 (IC50).
The test system of the next data set is DU-145. Nature of the data set: NCI-60 cytotoxicity, DU-145. It counts as cell-based. The settings on record: Homo sapiens, single determinations, Table 2, read-out: Cytotoxicity (GI50) Prostate DU-145.
The next data set deals with SN12C. Nature of the data set: NCI-60 cytotoxicity, SN12C. The settings on record: Homo sapiens, read-out: Cytotoxicity (GI50) Renal SN12C.
Setting [2] is: determined in duplicate, Table 2.

Read-outs that look alike come from different tables or passages of the source.

Sequence of Tdp1 (Q9NUW8 whole entry): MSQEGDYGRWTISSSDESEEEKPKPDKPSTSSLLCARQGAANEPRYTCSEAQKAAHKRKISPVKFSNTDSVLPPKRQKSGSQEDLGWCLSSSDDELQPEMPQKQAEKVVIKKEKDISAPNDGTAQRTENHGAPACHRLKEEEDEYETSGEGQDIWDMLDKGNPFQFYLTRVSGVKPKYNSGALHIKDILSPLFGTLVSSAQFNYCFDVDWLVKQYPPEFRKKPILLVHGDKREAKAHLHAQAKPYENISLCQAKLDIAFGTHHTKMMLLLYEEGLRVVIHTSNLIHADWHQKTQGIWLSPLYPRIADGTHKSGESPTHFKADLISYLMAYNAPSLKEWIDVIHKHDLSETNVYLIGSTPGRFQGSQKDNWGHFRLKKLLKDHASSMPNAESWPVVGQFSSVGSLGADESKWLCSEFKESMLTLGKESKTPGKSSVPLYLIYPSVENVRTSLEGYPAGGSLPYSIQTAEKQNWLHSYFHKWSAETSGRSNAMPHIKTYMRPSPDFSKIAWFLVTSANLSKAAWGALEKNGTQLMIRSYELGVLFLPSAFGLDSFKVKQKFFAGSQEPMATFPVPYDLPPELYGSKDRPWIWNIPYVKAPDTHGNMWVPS
Method for recombinant human TDP2: TDP2 reactions were carried out as described previously with the following modifications. […] Reactions were terminated and treated similarly to whole-cell extract and recombinant Tdp1 reactions (see previous paragraph).

In the case of `COc1cnc2c(c1)C(=O)c1c-2n(CCCNC2=NCCS2)c(=O)c2cc(Cl)ccc12` [Compound 16c, 3-Chloro-6-(3-((4,5-dihydrothiazol-2-yl)amino)propyl)-9-methoxy-5H-pyrido[3′,2′:4,5]cyclopenta[1,2-c]isoquinoline-5,11(6H)-dione], the melting point is 295 to 298 °C. For the same compound, in the data set on UACC-62, the GI50 worked out at 0.095 µM. Further, the GI50 in data set [1] is 0.39 µM. For the same compound, in the data set with OVCAR-3, the GI50 stood at 1.3 µM. Moreover, the IC50 at recombinant human TDP2 was found to be 32.9 ± 5.7 µM. Besides, the GI50 with SF-539 stood at 0.47 µM. In addition, the “Enzyme Inhibitory Activity Top1” value at Top1 is on record as “++”. In addition, in the data set on HCT-116, the 50% growth inhibitory concentration (GI50) came out at 0.35 µM. The GI50 in the data set on MCF-7 came to 0.036 µM. In the data set on HOP-62, the GI50 is 0.042 µM. Further, at Tdp1, the IC50 was found to be 11.9 ± 3.9 µM. Further, in the data set on DU-145, the GI50 amounted to 0.092 µM.

Turning to `CNCCCn1c2c(c3ccc(Cl)cc3c1=O)C(=O)c1cc(OC)cnc1-2` [Compound 16g, 3-Chloro-9-methoxy-6-(3-(methylamino)propyl)-5H-pyrido[3′,2′:4,5]cyclopenta[1,2-c]isoquinoline-5,11(6H)-dione], the melting point is 274 to 275 °C. Moreover, the concentration for 50% growth inhibition (GI50) in the data set on UACC-62 was found to be 0.574 µM. In addition, in data set [1], the GI50 was 0.6 µM. Further, the GI50 with OVCAR-3 came to 1.41 µM. Besides, in the data set with SN12C, the GI50 came to 1.18 µM. Also, the IC50 at recombinant human TDP2 (setting [2]) was over 111 µM. Moreover, the GI50 with SF-539 came to 0.73 µM. Besides, the 50% growth inhibitory concentration (GI50) in the data set on HCT-116 was found to be 0.55 µM. For the same compound, the GI50 in the data set on MCF-7 is 0.046 µM. For the same compound, in the data set with HOP-62, the GI50 amounted to 0.22 µM. Also, the IC50 at Tdp1 amounted to 16 ± 3.2 µM. Besides, in the data set on DU-145, the GI50 worked out at 0.331 µM.

In turn, `COc1cnc2c(c1)C(=O)c1c-2n(CCCNC2=NCCS2)c(=O)c2cc(F)ccc12` [Compound 17c, 6-(3-((4,5-Dihydrothiazol-2-yl)amino)propyl)-3-fluoro-9-methoxy-5H-pyrido[3′,2′:4,5]-cyclopenta-[1,2-c]isoquinoline-5,11(6H)-dione] displayed a melting point of 226 to 250 °C. Besides, in the data set with UACC-62, the GI50 stood at 0.344 µM. In addition, the GI50 in data set [1] worked out at 0.269 µM. In addition, the GI50 in the data set with OVCAR-3 came out at 0.567 µM. The GI50 with SN12C is 0.238 µM. The IC50 on recombinant human TDP2 came to 61.6 ± 14 µM. In addition, in the data set on SF-539, the GI50 worked out at 0.305 µM. At Top1, the “Enzyme Inhibitory Activity Top1” value is reported as “++”. Besides, in the data set with HCT-116, the 50% growth inhibitory concentration (GI50) was 0.082 µM. Also, in the data set on MCF-7, the GI50 is 0.033 µM. The GI50 in the data set with HOP-62 amounted to 0.059 µM. The IC50 on Tdp1 was over 111 µM. Also, the GI50 with DU-145 is 0.144 µM.

Regarding `COc1cnc2c(c1)C(=O)c1c-2n(CCCNC(C)C)c(=O)c2cc(F)ccc12` [Compound 17f, 3-Fluoro-6-(3-(isopropylamino)propyl)-9-methoxy-5H-pyrido[3′,2′:4,5]cyclopenta[1,2-c]isoquinoline-5,11(6H)-dione], the melting point lay in the range of 285 to 292 °C. The GI50 in the data set with UACC-62 worked out at 0.271 µM. Moreover, the GI50 in data set [1] is 0.165 µM. Also, in the data set on OVCAR-3, the GI50 was found to be 0.19 µM. In addition, the GI50 in the data set on SN12C amounted to 0.164 µM. The IC50 on recombinant human TDP2 (setting [2]) is over 111 µM. Besides, the 50% growth inhibitory concentration (GI50) in the data set on SF-539 is 0.248 µM. In addition, the “Enzyme Inhibitory Activity Top1” value at Top1 is reported as “++”. The GI50 in the data set on HCT-116 was determined as 0.093 µM. Also, the GI50 in the data set with MCF-7 is 0.031 µM. The 50% growth inhibitory concentration (GI50) with HOP-62 came to 0.107 µM. Further, at Tdp1, the IC50 was over 111 µM. The GI50 with DU-145 turned out to be 0.21 µM.

Regarding `CNCCCn1c2c(c3ccc(F)cc3c1=O)C(=O)c1cc(OC)cnc1-2` [Compound 17g, 3-Fluoro-9-methoxy-6-(3-(methylamino)propyl)-5H-pyrido[3′,2′:4,5]cyclopenta[1,2-c]isoquinoline-5,11(6H)-dione], the melting point was 259 to 265 °C. Besides, the GI50 in the data set with UACC-62 was 0.608 µM. Further, the GI50 in [1] is 0.245 µM. The GI50 with OVCAR-3 came to 0.263 µM. Also, the GI50 in the data set with SN12C is 0.211 µM. On recombinant human TDP2 (setting [2]), the IC50 was 108 ± 3 µM. In the data set with SF-539, the GI50 was found to be 0.368 µM. Besides, at Top1, the “Enzyme Inhibitory Activity Top1” value is “+”. Moreover, in the data set with HCT-116, the GI50 was 0.143 µM. Moreover, in the data set on MCF-7, the GI50 is 0.034 µM. Besides, in the data set on HOP-62, the GI50 was determined as 0.142 µM. For the same compound, the IC50 on Tdp1 was over 111 µM. Further, the GI50 in the data set with DU-145 turned out to be 0.202 µM.

`COc1cnc2c(c1)C(=O)c1c-2n(CCCN2CCCC2)c(=O)c2cc(F)ccc12` [Compound 17i, 3-Fluoro-9-methoxy-6-(3-(pyrrolidin-1-yl)propyl)-5H-pyrido[3′,2′:4,5]cyclopenta[1,2-c]isoquinoline-5,11(6H)-dione] had a melting point of 157 to 162 °C. In addition, the GI50 in the data set on UACC-62 was 0.471 µM. The GI50 in [1] was 0.288 µM. Further, the GI50 in the data set with OVCAR-3 is 0.307 µM. In the data set on SN12C, the GI50 came to 0.241 µM. Moreover, the IC50 at recombinant human TDP2 (setting [2]) is over 111 µM. For the same compound, in the data set with SF-539, the 50% growth inhibitory concentration (GI50) was 0.36 µM. Moreover, the “Enzyme Inhibitory Activity Top1” value on Top1 is “+++”. Moreover, the GI50 in the data set with HCT-116 came to 0.153 µM. Further, in the data set on MCF-7, the GI50 came to 0.048 µM. The GI50 in the data set with HOP-62 was 0.212 µM. In addition, on Tdp1, the IC50 is over 111 µM. The GI50 in the data set on DU-145 was found to be 0.211 µM.
